The values that follow come from ChEMBL document CHEMBL5649167, “The SUV4-20 inhibitor A-196 verifies a role for epigenetics in genomic integrity” (Nat Chem Biol, 2017).

pIC50, pKi: −log10 of the molar value. Some results are limits rather than exact numbers.

By inhibition is commonly meant the relative decrease from the control value, in per cent. The term pIC50 denotes −log10 of the IC50, conventionally taken in molar units. Broadly, the pKi is the Ki on a negative log10 scale, so that one unit is a factor of ten.

Data set [1] in a line: Inhibition of human 5-HT3 receptor expressed in HEK293T cells at 10 uM relative to control. The note with it: HEK-293T.
Data set [2] relates to B-cell. Kind of data set: Induction of DNA repair in mouse B cells assessed as change in ability of splenic cells to switch from IgM to IgG3 at 1 uM incubated for 4 days in the presence of LPS by flow cytometry analysis (Rvb=5.71%). The format is functional. The note with it: time 4 day. A general note: A flow cytometer gives signals particle by particle.
Data set [3] addresses Histone-lysine N-methyltransferase KMT5B (Homo sapiens, UniProt Q4FZB7). Kind of data set: Inhibition of recombinant human 6His-(Tev)-G-SUV420H1 (69 to 335 residues) using Biotin-tagged H4K20me1 and [3H-SAM] as substrate incubated for 2 hrs by scintillation proximity assay. Background: In a scintillation proximity assay essentially only radioactivity close to the scintillant gives light.

Data set [4] concerns the target T1, 5-hydroxytryptamine receptor 2A (Homo sapiens, UniProt P28223). In words: Inhibition of human 5-HT2A assessed as inhibition constant.
The target of data set [5] is T2, 5-hydroxytryptamine receptor 1A (Homo sapiens, UniProt P08908).
T2 sequence (P08908 whole entry): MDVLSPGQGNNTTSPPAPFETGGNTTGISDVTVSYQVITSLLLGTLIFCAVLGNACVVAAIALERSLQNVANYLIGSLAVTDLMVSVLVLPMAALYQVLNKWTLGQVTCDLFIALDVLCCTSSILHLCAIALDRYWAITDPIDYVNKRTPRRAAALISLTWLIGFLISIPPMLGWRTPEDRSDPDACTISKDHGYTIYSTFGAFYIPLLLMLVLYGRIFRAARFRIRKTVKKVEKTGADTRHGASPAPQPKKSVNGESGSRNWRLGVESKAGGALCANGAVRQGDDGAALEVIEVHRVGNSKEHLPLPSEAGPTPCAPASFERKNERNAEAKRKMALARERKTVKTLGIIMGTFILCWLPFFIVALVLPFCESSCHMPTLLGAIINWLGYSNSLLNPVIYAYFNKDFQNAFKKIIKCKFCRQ
In words: Inhibition of human 5-HT1A assessed as inhibition constant.

Data set [6] deals with Adenosine receptor A2a (Homo sapiens, UniProt P29274). Kind of data set: Inhibition of human Adenosine receptor A2a assessed as inhibition constant.
Adenosine receptor A2a, sequence (P29274 whole entry): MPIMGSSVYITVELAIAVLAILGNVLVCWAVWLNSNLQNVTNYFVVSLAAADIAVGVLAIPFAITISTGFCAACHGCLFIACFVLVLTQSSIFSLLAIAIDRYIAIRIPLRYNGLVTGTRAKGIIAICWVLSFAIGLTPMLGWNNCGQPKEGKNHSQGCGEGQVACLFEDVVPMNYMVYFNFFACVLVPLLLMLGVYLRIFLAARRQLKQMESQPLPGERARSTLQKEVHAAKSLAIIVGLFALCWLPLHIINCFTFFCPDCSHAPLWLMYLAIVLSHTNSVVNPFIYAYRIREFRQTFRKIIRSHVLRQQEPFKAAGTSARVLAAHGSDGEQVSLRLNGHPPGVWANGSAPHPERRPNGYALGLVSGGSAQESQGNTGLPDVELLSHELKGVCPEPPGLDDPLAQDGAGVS
Data set [7] can be described thus: Inhibition of Rat GABAA assessed as inhibition constant in the presence of PBR.
For data set [8], the system named is B-cell. Kind of data set: Induction of DNA repair in mouse B cells assessed as change in ability of splenic cells to switch from IgM to IgG1 at 10 uM incubated for 2 days in the presence of LPS by flow cytometry analysis (Rvb=9.59%). The format is functional. The note with it: time 2 day.
The target of data set [9] is KV channel (voltage-gated potassium channel) (Homo sapiens, UniProt O43525+O43526+O95259+P16389+P17658+P22001+P22459+P22460+P48547+P51787+P56696+Q03721+Q09470+Q12809+Q14003+Q14721+Q16322+Q6PIU1+Q8NCM2+Q8TAE7+Q8TDN1+Q8TDN2+Q92953+Q96KK3+Q96L42+Q96PR1+Q96RP8+Q9BQ31+Q9H252+Q9H3M0+Q9NR82+Q9NS40+Q9NSA2+Q9NZV8+Q9UIX4+Q9UJ96+Q9UK17+Q9ULD8+Q9ULS6+Q9UQ05). In words: Inhibition of human KV channel at 10 uM relative to control. Type of data set: protein assay.

For data set [10], the target named is T1, 5-hydroxytryptamine receptor 2A. Kind of data set: Inhibition of human 5-HT2A receptor expressed in HEK293T cells assessed as inhibition constant. Type of data set: cell-based.
The target of data set [11] is T3, Adenosine receptor A1 (Homo sapiens, UniProt P30542).
T3 sequence (P30542 whole entry): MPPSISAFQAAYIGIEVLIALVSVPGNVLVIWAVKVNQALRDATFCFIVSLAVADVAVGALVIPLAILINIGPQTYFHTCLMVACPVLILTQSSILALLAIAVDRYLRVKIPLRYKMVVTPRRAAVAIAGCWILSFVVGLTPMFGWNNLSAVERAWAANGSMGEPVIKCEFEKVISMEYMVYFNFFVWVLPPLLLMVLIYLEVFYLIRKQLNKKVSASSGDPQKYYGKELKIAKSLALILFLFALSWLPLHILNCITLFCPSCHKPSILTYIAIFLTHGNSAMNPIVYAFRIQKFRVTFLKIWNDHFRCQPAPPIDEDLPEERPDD
Kind of data set: Inhibition of human Adenosine receptor A1 assessed as inhibition constant.

Data set [12] deals with L-type calcium channel (verapamil binding site) (Homo sapiens, UniProt O60840+Q01668+Q13698+Q13936). Kind of data set: Inhibition of human L-type calcium channel verapamil binding site at 10 uM relative to control. The format is protein assay.
The target of data set [13] is T4, Adenosine receptor A3 (Homo sapiens, UniProt P0DMS8).
T4 sequence (P0DMS8 whole entry): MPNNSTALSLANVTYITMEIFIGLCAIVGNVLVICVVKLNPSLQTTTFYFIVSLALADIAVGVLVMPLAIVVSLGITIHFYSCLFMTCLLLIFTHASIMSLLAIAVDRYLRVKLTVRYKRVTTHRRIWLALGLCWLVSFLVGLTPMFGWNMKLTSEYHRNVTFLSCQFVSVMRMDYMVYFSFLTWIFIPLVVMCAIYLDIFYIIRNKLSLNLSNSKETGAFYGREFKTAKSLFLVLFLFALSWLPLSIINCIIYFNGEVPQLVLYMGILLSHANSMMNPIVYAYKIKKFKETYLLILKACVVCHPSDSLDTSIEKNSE
In words: Inhibition of human Adenosine receptor A3 assessed as inhibition constant.

Data set [14] has as its target Kappa-type opioid receptor (Homo sapiens, UniProt P41145). Kind of data set: Inhibition of human kappa opioid receptor expressed in stable HEK cells assessed as inhibition constant. Type of data set: cell-based.
The test system of data set [15] is B-cell. Kind of data set: Induction of DNA repair in mouse B cells assessed as change in ability of splenic cells to switch from IgM to IgE at 1 uM incubated for 3 days in the presence of LPS plus IL-4 by flow cytometry analysis (Rvb=1.97%). Type of data set: functional. The note with it: time 3 day.
Data set [16] addresses Sodium-dependent serotonin transporter (Homo sapiens, UniProt P31645). In words: Inhibition of human 5-HT transporter assessed as inhibition constant.
For data set [17], the system named is B-cell. In words: Induction of DNA repair in mouse B cells assessed as change in ability of splenic cells to switch from IgM to IgE at 10 uM incubated for 3 days in the presence of LPS plus IL-4 by flow cytometry analysis (Rvb=1.97%). Type of data set: functional. The note with it: time 3 day.
Data set [18] relates to B-cell. Kind of data set: Induction of DNA repair in mouse B cells assessed as change in ability of splenic cells to switch from IgM to IgG1 incubated for 2 days at 1 uM in the presence of LPS by flow cytometry analysis (Rvb=9.59%). The note with it: time 2 day. Type of data set: functional.
Data set [19] concerns B-cell. In words: Induction of DNA repair in mouse B cells assessed as change in ability of splenic cells to switch from IgM to IgG3 at 10 uM incubated for 4 days in the presence of LPS by flow cytometry analysis (Rvb=5.71%). Type of data set: functional. The note with it: time 4 day.
Data set [20] has as its target Histone-lysine N-methyltransferase KMT5C (Homo sapiens, UniProt Q86Y97). Kind of data set: Inhibition of human SUV420H2 using Biotin-tagged H4K20me1 and [3H-SAM] as substrate incubated for 2 hrs by scintillation proximity assay.

T1 sequence (P28223 whole entry): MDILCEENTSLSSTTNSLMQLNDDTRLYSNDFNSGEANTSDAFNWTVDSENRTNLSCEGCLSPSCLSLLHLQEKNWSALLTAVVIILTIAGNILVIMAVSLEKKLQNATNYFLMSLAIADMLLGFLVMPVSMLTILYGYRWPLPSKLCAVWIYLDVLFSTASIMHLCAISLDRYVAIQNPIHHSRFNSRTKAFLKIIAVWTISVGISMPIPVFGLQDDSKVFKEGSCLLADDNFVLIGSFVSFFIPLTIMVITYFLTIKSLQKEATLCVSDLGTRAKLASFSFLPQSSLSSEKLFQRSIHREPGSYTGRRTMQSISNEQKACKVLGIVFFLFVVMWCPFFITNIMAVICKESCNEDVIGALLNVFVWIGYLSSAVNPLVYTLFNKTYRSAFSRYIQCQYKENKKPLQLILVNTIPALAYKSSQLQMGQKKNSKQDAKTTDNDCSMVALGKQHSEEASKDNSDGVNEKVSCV
Kappa-type opioid receptor, sequence (P41145 whole entry): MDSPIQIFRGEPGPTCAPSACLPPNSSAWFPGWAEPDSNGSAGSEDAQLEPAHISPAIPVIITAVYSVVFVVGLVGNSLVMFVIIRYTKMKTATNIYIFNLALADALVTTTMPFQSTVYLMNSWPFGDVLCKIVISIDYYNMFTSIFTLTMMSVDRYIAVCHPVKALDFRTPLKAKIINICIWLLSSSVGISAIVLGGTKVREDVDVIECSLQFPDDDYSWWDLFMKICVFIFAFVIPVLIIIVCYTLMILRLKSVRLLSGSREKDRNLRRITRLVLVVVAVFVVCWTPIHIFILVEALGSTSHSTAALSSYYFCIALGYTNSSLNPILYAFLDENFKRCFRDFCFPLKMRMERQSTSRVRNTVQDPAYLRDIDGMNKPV
Histone-lysine N-methyltransferase KMT5B, sequence (Q4FZB7 whole entry, the tested form may be a part): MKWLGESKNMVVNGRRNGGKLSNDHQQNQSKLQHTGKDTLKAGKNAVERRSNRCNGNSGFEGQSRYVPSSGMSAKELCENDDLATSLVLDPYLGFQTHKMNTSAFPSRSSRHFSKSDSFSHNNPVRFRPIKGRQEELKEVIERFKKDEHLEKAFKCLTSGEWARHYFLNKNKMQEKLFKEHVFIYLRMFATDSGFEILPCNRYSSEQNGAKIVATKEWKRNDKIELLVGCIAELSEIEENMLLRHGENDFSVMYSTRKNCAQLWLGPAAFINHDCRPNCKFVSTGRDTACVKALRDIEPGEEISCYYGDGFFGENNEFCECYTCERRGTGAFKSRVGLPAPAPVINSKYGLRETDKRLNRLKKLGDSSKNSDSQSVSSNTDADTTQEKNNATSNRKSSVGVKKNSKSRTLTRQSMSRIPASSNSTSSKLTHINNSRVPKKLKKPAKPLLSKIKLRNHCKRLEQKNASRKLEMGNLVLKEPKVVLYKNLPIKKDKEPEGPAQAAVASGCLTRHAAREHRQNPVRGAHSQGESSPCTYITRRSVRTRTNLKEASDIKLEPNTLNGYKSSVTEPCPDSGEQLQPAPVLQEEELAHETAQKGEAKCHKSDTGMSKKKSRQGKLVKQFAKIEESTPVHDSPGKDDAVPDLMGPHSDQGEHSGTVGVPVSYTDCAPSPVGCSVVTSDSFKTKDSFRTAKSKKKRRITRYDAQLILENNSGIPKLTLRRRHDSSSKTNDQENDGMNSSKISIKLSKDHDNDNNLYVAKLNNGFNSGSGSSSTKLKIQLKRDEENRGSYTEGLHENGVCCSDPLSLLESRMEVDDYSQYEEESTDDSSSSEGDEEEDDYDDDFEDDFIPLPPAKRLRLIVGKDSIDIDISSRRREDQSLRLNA
Histone-lysine N-methyltransferase KMT5C, sequence (Q86Y97 whole entry): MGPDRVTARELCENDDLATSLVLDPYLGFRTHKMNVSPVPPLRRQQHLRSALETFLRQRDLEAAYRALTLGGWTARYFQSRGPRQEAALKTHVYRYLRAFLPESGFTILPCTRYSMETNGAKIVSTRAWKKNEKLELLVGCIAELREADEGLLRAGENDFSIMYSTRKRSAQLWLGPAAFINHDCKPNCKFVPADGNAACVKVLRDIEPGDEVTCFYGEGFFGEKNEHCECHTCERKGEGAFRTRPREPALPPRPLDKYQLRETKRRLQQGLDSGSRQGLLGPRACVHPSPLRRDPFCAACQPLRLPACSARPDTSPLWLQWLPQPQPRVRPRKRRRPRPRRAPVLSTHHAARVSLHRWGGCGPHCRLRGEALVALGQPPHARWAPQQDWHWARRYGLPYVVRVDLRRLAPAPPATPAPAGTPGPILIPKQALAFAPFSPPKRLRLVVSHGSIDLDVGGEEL
Sodium-dependent serotonin transporter, sequence (P31645 whole entry): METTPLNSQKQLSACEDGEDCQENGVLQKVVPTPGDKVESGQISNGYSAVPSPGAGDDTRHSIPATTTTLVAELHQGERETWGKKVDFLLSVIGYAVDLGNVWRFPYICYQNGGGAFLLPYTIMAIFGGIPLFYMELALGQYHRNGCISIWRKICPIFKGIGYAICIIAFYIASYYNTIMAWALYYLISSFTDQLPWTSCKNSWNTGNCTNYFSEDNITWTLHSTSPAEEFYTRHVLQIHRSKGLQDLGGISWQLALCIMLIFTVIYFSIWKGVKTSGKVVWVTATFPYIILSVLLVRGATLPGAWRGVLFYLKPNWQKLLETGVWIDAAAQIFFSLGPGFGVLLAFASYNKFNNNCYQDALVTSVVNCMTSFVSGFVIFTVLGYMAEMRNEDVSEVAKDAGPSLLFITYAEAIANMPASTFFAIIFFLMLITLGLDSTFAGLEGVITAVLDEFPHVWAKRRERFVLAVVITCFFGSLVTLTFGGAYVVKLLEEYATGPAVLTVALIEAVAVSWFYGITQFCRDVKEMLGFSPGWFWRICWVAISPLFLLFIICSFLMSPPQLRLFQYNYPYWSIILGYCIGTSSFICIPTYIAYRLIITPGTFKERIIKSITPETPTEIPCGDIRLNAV

Consider `O=C(c1nnc(NC2CCCC2)c2cc(Cl)c(Cl)cc12)N1CCC(O)CC1`, for which the inhibition at 10 µM in [1] is -5%; in [9], -5%; in [12], 4%. Also, the Activity is listed as 5.55% in data set [2]; 10.6% in data set [8]; 2.45% in data set [15]; 1.94% in data set [17]; 10.7% in data set [18]; 5.11% in [19]. Besides, the pIC50 in [3] and in data set [20] was less than 5.00 throughout. Moreover, the pKi in data set [4] is 4.89; in data set [5], less than 5.00; in [6], 4.70; in [7] it was 5.96; in data set [10], less than 5.00; in data set [11], 5.51. In addition, the pKi was 4.89 in data set [13], 5.57 in data set [14] and 5.41 in data set [16].
